In patent US12521378B2, “Administration of R-beta-hydroxybutyrate salt blend and related compounds in humans” (priority 2016, dated 2026):

Tests used:
[1] = mental acuity testing (tracking, saccades, processing speed, response accuracy); assay type: in vivo, human
Procedure: Processing speed testing was performed (e.g, processing speed is considered a true measure of cognitive performance). […] Response accuracy was also tested.

[2] = 2 km time test on wingate cycle ergometer; assay type: in vivo, human; settings: 10 g, 30 minutes before 2 km time test
Procedure: Five healthy individual were given a 2 km time test (e.g., 4 cycles of low to severely intense exercise on a […] ergometer) 30 minutes after administration of a placebo, 10 g of R-beta-hydroxybutyrate, and 10 g of […]. FIG. 12 illustrates the average blood ketone levels and FIG. 13 illustrates the percentage improvement over the administration of the placebo. […] FIG. 14 illustrates the perceived exertion experienced by the individuals. […] Thus, the R-beta-hydroxybutyrate has an unexpectedly impact on ketone levels and performance.

[3] = blood ketone levels after R-, L- or D,L-beta-hydroxybutyrate; assay type: in vivo, human; settings: 5 g or 10 mg (so in the source)
Procedure: Individuals were 5 g or 10 mg of R-beta-hydroxybutyrate, L-beta-hydroxybutyrate, or D,L-beta-hydroxybutyrate and blood ketone levels were measured.

[4] = Respiratory exchange ratio (RER); assay type: in vivo, human; settings: 10 subjects
Procedure: 10 subjects were administered approximately 5 g or 10 g of D,L-beta-hydroxybutyrate or R-beta-hydroxybutyrate, and Respiratory exchange ratio was examined (RER, a ratio of carbon dioxide/oxygen).

[5] = Bench Press strength and power testing at 50% of 1-RM; assay type: in vivo, human; settings: 5 g; for increase in minimum power: averages of power measurements
Procedure: FIGS. 19A-19B illustrate the results of the testing. […] Thus, R-beta-hydroxybutyrate experienced a greater than expected impact when compared with D,L-beta-hydroxybutyrate. The individuals were also tested for power. FIG. 19C illustrates the results of the testing (e.g., averages of power measurements). As illustrated, R-beta-hydroxybutyrate administration increased minimum power by 26%, while the DL-beta-hydroxybutyrate administration raised power by 2%.

[6] = Xray absorptiometry, fat mass and lean mass; assay type: in vivo, human; settings: 5 g twice daily for 3 months; one individual
Procedure: Xray absorptiometry was performed to determine the impact of the administration of R-beta-hydroxybutyrate on fat loss. […] As illustrated, the individual experienced a greater than approximately 10% decrease in fat mass. […] Thus, the R-beta-hydroxybutyrate may cause weight loss through fat loss rather than lean mass (e.g., muscle mass).

Lipoprotien lipase (LPL) = assay: average Lipoprotien lipase (LPL) in rats; assay type: in vivo; settings: standard diet plus salt equivalent to 5 g or 10 g; 10 rats per grouping
Excerpt: FIG. 11 illustrates the average Lipoprotien lipase (LPL) in the rats. Since LPL is needed to transport fat into adipose tissue, lowering LPL levels would inhibit fat storage and encourage usage of fat storages.

[7] = perceived hunger, satiety and perceived energy; assay type: in vivo, human
Procedure: FIGS. 18A-18C illustrate the results of the testing. FIG. 18A illustrates perceived hunger, FIG. 18B illustrates perceived satiety, and FIG. 18C illustrates perceived energy. […] R-beta-hydroxybutyrate sustained elevated perceived energy levels from 0 minutes at 60, 90, and 120 minutes post consumption, as opposed to D,L-beta-hydroxybutyrate.

[8] = motor function testing by eye movements in an individual with Parkinson's disease; assay type: in vivo, human; settings: approximately 10 g; approximately 30 minutes after administration; one Parkinson's patient, pre vs post
Excerpt: The testing included a right-eye visual and motor performance apparatus to track motor function through eye movements. FIG. 8 illustrates chart illustrating the results of the motor skill testing following an example implementation of administration of R-beta-hydroxybutyrate. FIG. 8 illustrates average results for a similar non-Parkinson's population, the patient pre-administration of R-beta-hydroxybutyrate, and the patient post-administration of R-beta-hydroxybutyrate.

[9] = lifespan of rats on low-fat standard American diet; assay type: in vivo, Fischer 344 rats; settings: supplemented versus standard diet at 20 months
Excerpt: Sixteen rats (Fischer 344 rats) were studied for the effect of R-beta-hydroxybutyrate on lifespan. A first grouping of eight rats were fed an equivalent to a low-fat standard American diet and a second grouping of eight rats were fed the same equivalent to a low-fat standard American diet and supplemented with R-beta-hydroxybutyrate salt (e.g., sodium R-beta-hydroxybutyrate). The second grouping of rats were supplemented with the R-beta-hydroxybutyrate salt at middle age. FIG. 7 illustrates the average lifespans of the groupings of rats. […] Since the rat study was performed as an approximation of impact in humans, the addition of R-beta-hydroxybutyrate to a standard American low-fat diet may increase lifespan.

superoxide dismutase 2 = superoxide dismutase 2 levels in the brain; assay type: in vivo; settings: e.g. 10 g; standard or ketogenic diet
Procedure: Individuals were given a standard diet or ketogenic diet. Some individuals were administered R-beta-hydroxybutyrate (e.g., 10 g).

C-reactive protein = C-reactive protein levels after administration; assay type: in vivo, human; settings: one individual with high C-reactive protein; 62.5 before administration
Procedure: (§1) An individual with high C-reactive protein, which is associated with inflammation, was administered R-beta-hydroxybutyrate. […] In addition, fasting glucose was decreased (e.g., 104 to 95).

[10] = fasting glucose after administration; assay type: in vivo, human; settings: same individual; 104 before administration
Procedure: as §1

[11] = glucose challenge test (75 g glucose), blood glucose levels; assay type: in vivo, human
Procedure: Five subjects were subject to three separate glucose challenge tests (75 g glucose) after administration of 500 mg berberine (BB), 250 mg of dihydroberberine (DHBB) or 500 dihydroberberine. Blood was drawn prior to administration and after 30, 60, 90, 120, and 180 minutes. FIG. 1 illustrates the results of the administration protocol. FIG. 1 illustrates the average blood glucose level of the 5 subjects at each of the times.
As in Example 1, five subjects were subject to three separate glucose challenge tests (75 g glucose) after administration of 500 mg berberine (BB), 250 mg of dihydroberberine (DHBB) or 500 dihydroberberine. FIG. 2 illustrates a ranking which compositions caused the lowest blood glucose levels during a oral glucose challenge. […] For example, in some individuals (e.g., individuals with moderate glucose tolerance) may achieve better blood glucose control when administered a lower dosage of DHBB.
Five subjects were subject to three separate glucose challenge tests (75 g glucose) approximately 25 minutes after administration of 500 mg berberine (BB), 250 mg of dihydroberberine (DHBB) or 500 dihydroberberine. Blood was drawn prior to administration and after 30, 60, 90, 120, and 180 minutes and tested for glucose levels. FIG. 4 illustrates the results of the administration protocol.

[12] = glucose challenge test, blood ketone levels; assay type: in vivo, human; settings: 250 mg DHBB alone or with 5 mg sodium beta-hydroxybutyrate; one subject; 120 minutes
Procedure: A subject was subject to a glucose challenge test (75 g glucose) after administration of 250 mg dihydroberberine (DHBB) and a glucose challenge test after administration of 250 mg dihydroberberine (DHBB) along with 5 mg of beta-hydroxybutyrate (e.g., 5 mg sodium beta-hydroxybutyrate).

[13] = blood ketone level over time after administration of sodium beta-hydroxybutyrate; assay type: in vivo, human; settings: 5 mg of sodium R-beta-hydroxybutyrate (so in the source); average of 4 subjects; 30, 60, 90, 120 and 180 minutes
[14] = before vs after, 5 resistance trained males, 50% of 1-RM

For `CC(O)CC(=O)O` (racemic) [D,L-beta-hydroxybutyrate, reference compound], the “increase of response accuracy” value ([1]; DL-beta-hydroxybutyrate) was 12.7%, the “Horizontal Saccades, performance improvement” value ([1]; e.g. 5 g) was 3.2% and the “improvement of processing speed” value ([1]; e.g. 5 g) was “approximately 18%”. The “Circular Tracking, improvement in tracking accuracy” value ([1]; e.g. 10 g) was “no improvement”, the “Vertical Tracking, improvement of performance” value ([1]; e.g. 10 g) was 4.6% and the perceived exertion [2] was “did not feel an impact in perceived exertion”. The blood ketone levels [3] was “does not lower blood ketone levels to the same extent as R-beta-hydroxybutyrate”, the “increase of RER” value ([4]; D,L-beta-hydroxybutyrate, more than 5 g) was 17% and the “increase in minimum power” value [5] was 2%. The “decrease in Bench Press test result” value [5, 14] was 2%.
For `C[C@H](O)CC(=O)O` [L-beta-hydroxybutyrate], the blood ketone levels [3] was “does not decrease blood ketones”.
In the case of `C[C@@H](O)CC(=O)O` [R-beta-hydroxybutyrate, (R)-3-Hydroxybutyric acid], the “Horizontal Saccades, improvement relative to D,L-beta-hydroxybutyrate” value ([1]; e.g. 5 g) is reported as 4 times, the “Horizontal Saccades, performance improvement” value ([1]; e.g. 5 g) is reported as 13.8% and the “improvement of processing speed” value ([1]; e.g. 5 g) is reported as 27.7%. For the same molecule, the “increase of response accuracy” value ([1]; e.g. 5 g) was 37 percentage points, the “Circular Tracking, improvement in tracking accuracy” value ([1]; e.g. 10 g) was “approximately 3%” and the “Vertical Tracking, improvement of performance” value ([1]; e.g. 10 g) was 13.8%. The “Vertical Tracking, improvement relative to D,L-beta-hydroxybutyrate” value ([1]; e.g. 10 g) was “approximately 3 times”, the “decrease in fat mass” value [6] was greater than 10% and the lean mass [6] was “maintaining lean mass”. The perceived exertion [2] was “perceived exertion improvement”, the “blood ketone levels compared with D,L-beta-hydroxybutyrate” value ([2]; five healthy individuals) was “increased more than double” and the “performance (improvement in time) compared with D,L-beta-hydroxybutyrate” value ([2]; improvement over placebo) was “increased by more than double”. The LPL levels (Lipoprotien lipase (LPL)) was “decreases LPL levels”, the “reduction of RER relative to D,L-beta-hydroxybutyrate” value ([4]; 10 g) was “approximately 3 ×” and the “increase in minimum power” value [5] was 26%. For the same molecule, the “increase in Bench Press test result” value [5, 14] was 11%, the “improvement of perceived energy relative to D,L-beta-hydroxybutyrate” value ([7]; 0 to 30 minutes post consumption, 5 g-10 g) was “double that of D,L-beta-hydroxybutyrate” and the “raise of perceived energy” value ([7]; 5 g-10 g) was 18%. For the same molecule, the “improvement of satiety levels relative to DL-beta-hydroxybutyrate” value ([7]; 30 minutes post consumption, relative to baseline, 5 g-10 g) was 2.3 ×, the “raise of perceived energy relative to peak increase with DL-beta-hydroxybutyrate” value ([7]; in vivo) was “more than 2 times” and the “time for which raised perceived energy was sustained” value ([7]; post ingestion) was 2 h. The motor function [8] was “increased motor function”, the “rats with increased lifespan” value [9] was no less than 38.5% and the “superoxide dismutase 2 levels (SOD) in the brain” value (superoxide dismutase 2) was “numerically increase superoxide dismutase 2 levels”. The “C-reactive protein levels after administration” value (C-reactive protein) was 4.4 and the “fasting glucose after administration” value [10] was 95.
For `COc1ccc2c(c1OC)CN1CCc3cc4c(cc3C1=C2)OCO4` [dihydroberberine], the “control of blood glucose levels during oral glucose challenge (ranking)” value ([11]; 250 mg DHBB vs 500 mg DHBB, 5 subjects) was “control blood glucose levels better than even 500 mg of DHBB”, the “blood glucose during oral glucose challenge versus berberine” value ([11]; 250 mg or 500 dihydroberberine vs 500 mg berberine, 5 subjects) was “lower blood glucose than administration of berberine in most individuals” and the “fluctuations in blood glucose level” value ([11]; 75 g glucose challenge, 250 mg or 500 dihydroberberine vs 500 mg berberine, average of 5 subjects, 30-180 minutes) was “less fluctuations in blood glucose level than berberine”. For the same molecule, the “blood glucose levels relative to fasting blood glucose” value ([11]; 75 g glucose challenge, dihydroberberine vs 500 mg berberine, 5 subjects) was “keep blood glucose levels closer to fasting blood glucose than berberine”, the “moderation of blood glucose levels” value ([11]; individuals with moderate baseline glucose levels, glucose challenge about 25 minutes after administration, vs 500 mg berberine) was “moderates blood glucose levels better than even double the quantity of berberine” and the “blood ketone levels after glucose challenge” value [12] was “unexpectedly increased even 120 minutes after the glucose challenge”.
In the case of `C[C@@H](O)CC(=O)[O-].[Na+]` [sodium R-beta-hydroxybutyrate], the “blood ketone level compared with 10 g of D,L-beta-hydroxybutyrate” value [13] is reported as “approximately the same blood ketone level”.
